Experimental data: PubChem BioAssay (NCI)
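Growth conditions: 96-well plates. Treatment: test compound, 48 hours, 5 concentrations. Analysis: linear interpolation between bracketing concentrations; unreached endpoints set to highest concentration. The concentration for full growth arrest is given as TGI.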 Where a SMILES comes first, the peptide text is derived from it. [ ]: non-standard residue; d: D form. The star is where a group is joined. NMeAc5c = CNC1(C(=O)O)CCCC1; Boc = CC(C)(C)OC(=O)*; OBn = c1ccc(CO*)cc1

Tests used:
Test in all cases: DTP human tumour cell line panel, 48 h
SNB-19 CNS = test system: SNB-19 CNS
MALME-3M melanoma = test system: MALME-3M melanoma
SF-268 CNS = test system: SF-268 CNS
OVCAR-3 ovarian = test system: OVCAR-3 ovarian
OVCAR-8 ovarian = test system: OVCAR-8 ovarian
HCC-2998 colon = test system: HCC-2998 colon
HOP-62 NSCLC = test system: HOP-62 NSCLC
TK-10 renal = test system: TK-10 renal
NCI/ADR-RES ovarian = test system: NCI/ADR-RES ovarian
KM12 colon = test system: KM12 colon

| SMILES | TGI (SNB-19 CNS) [µM] | TGI (MALME-3M melanoma) [µM] | TGI (SF-268 CNS) [µM] | TGI (OVCAR-3 ovarian) [µM] | TGI (OVCAR-8 ovarian) [µM] | TGI (HCC-2998 colon) [µM] | TGI (HOP-62 NSCLC) [µM] | TGI (TK-10 renal) [µM] | TGI (NCI/ADR-RES ovarian) [µM] | TGI (KM12 colon) [µM] |
| --- | --- | --- | --- | --- | --- | --- | --- | --- | --- | --- |
| COC(=O)c1ccccc1CC1Cc2ccc3c(c2C1=O)CCCC3 (stereo not given) | > 100 | > 82.5 | > 100 | > 100 | > 100 | > 100 | > 100 | > 100 | > 84.9 | > 100 |
| CC[C@@H]1CC[C@@H]2[C@H](CC[C@]3(C)[C@@H](OC(C)=O)CC[C@@H]23)[C@H]1COC(C)=O | > 100 | 35.8 | 92.5 | 34.6 | 82 | 33.4 | > 100 | > 100 | 76 | 60 |
| COc1cc(C2c3cc4c(cc3OC(N3CCOCC3)C2C)OCO4)ccc1O (stereo not given) | > 100 | > 100 | > 100 | 45.1 | > 100 | 52.5 | > 63.8 | > 100 | 52.2 | > 100 |
| O=C1CCCSC(=O)N1Cc1ccccc1 | > 100 | > 100 | > 100 | > 100 | > 100 | > 100 | > 100 | > 100 | > 100 | > 100 |
| Cc1ccc(C(=O)O)cc1S(=O)(=O)Nn1cnc2ccc(S(=O)(=O)Nc3ccccc3C(=O)O)cc2c1=O | > 100 | > 100 | > 100 | > 100 | > 100 | > 100 | > 100 | > 100 | > 100 | > 100 |
| CCCN(C(=O)c1ccccc1)C(C#N)c1ccc(C(C#N)N(CCC)C(=O)c2ccccc2)cc1 (stereo not given) | 74.9 | > 100 | > 100 | > 100 | > 100 | > 100 | 99.3 | > 100 | > 100 | > 100 |
| CCCCCCc1cc2cc(-c3csc(CC#N)n3)c(=O)oc2cc1O | > 100 | > 100 | > 100 | > 100 | > 100 | > 100 | > 100 | > 100 | > 100 | > 100 |
| O=[N+]([O-])c1ccc2c(c1)c(OCc1ccccc1)nn2Cc1ccccc1 | > 100 | > 100 | > 100 | > 100 | > 100 | > 100 | > 100 | > 100 | > 100 | > 100 |
| O=C(N/N=C(/COc1ccc(Cl)cc1)N=Cc1ccncc1)c1ccncc1 | > 100 | > 100 | > 100 | > 100 | > 100 | > 100 | > 100 | > 100 | > 100 | > 100 |
| Nc1nc(SCCc2ccccc2)c2[nH]cnc2n1 | > 100 | > 100 | > 100 | > 100 | > 100 | 93.8 | > 100 | 67.9 | > 100 | > 100 |
| COC(=O)c1c(C)cccc1C1CN=NC12Cc1ccc(C)cc1C2=O (stereo not given) | > 100 | > 100 | > 100 | > 100 | > 100 | > 100 | > 100 | > 100 | > 100 | > 100 |
| Cc1ccc(-c2n[nH]c(=O)n2N2C(=O)c3ccccc3C2=O)cc1 | > 100 | > 100 | > 100 | > 100 | > 100 | > 100 | > 100 | > 100 | > 100 | > 100 |
| CCOC(=O)C1(C/C=C/CBr)Cc2ccccc2C1=O (stereo not given) | 37.2 | 7.43 | 10 | 4.54 | 7.34 | 21.3 | 14.8 | 9.15 | 5.02 | 10.8 |
| c1csc(-c2ccc(-c3cccc4nsnc34)s2)c1 | > 100 | > 100 | > 100 | > 100 | > 100 | > 100 | > 100 | > 100 | > 100 | > 100 |
| CN(C)C(=O)O/N=C1/C(c2c(O)[nH]c3ccccc23)=Nc2ccccc21 | 39.1 | 30 | 28.5 | 57 | 66.1 | > 100 | 48.9 | 57.1 | > 100 | > 100 |
| COC(=O)C([C@H](NC1(c2ccccc2)c2ccccc2-c2ccccc21)C(=O)OC)N(NC(=O)OCc1ccccc1)C(=O)OCc1ccccc1 (mixture of isomers) | > 100 | > 100 | > 100 | > 100 | > 100 | > 100 | > 100 | > 100 | > 100 | > 100 |

| SMILES | TGI (SNB-19 CNS) [µM] | TGI (MALME-3M melanoma) [µM] | TGI (SF-268 CNS) [µM] | TGI (OVCAR-3 ovarian) [µM] | TGI (OVCAR-8 ovarian) [µM] | TGI (HCC-2998 colon) [µM] | TGI (HOP-62 NSCLC) [µM] | TGI (TK-10 renal) [µM] | TGI (NCI/ADR-RES ovarian) [µM] | TGI (KM12 colon) [µM] |
| --- | --- | --- | --- | --- | --- | --- | --- | --- | --- | --- |
| N#Cc1c(N2CCCC2)ncn(-c2ccccc2)c1=O | > 100 | > 100 | > 100 | > 100 | > 100 | > 100 | > 100 | > 100 | > 100 | > 100 |
| COC(=O)C1SC(SC)=NC12c1ccccc1Nc1ccccc12 (stereo not given) | > 100 | 65.1 | > 100 | 45.8 | > 100 | 74.3 | > 100 | > 100 | > 100 | > 100 |
| C[C@@H](NC(=O)[C@@H]1C[C@]1(C)COC(=O)c1cc([N+](=O)[O-])cc([N+](=O)[O-])c1)c1cccc2ccccc12 | > 100 | 51 | > 100 | > 100 | > 100 | > 100 | > 100 | > 100 | > 100 | > 100 |
| C#CCNC(CS)C(=O)O (stereo not given) | > 100 | > 100 | > 100 | > 100 | > 100 | > 100 | > 100 | > 100 | > 100 | > 100 |
| CCOC(=O)c1cn2c(n1)sc1cccc(C)c12 | > 100 | > 100 | > 100 | > 100 | > 100 | > 100 | > 100 | > 100 | > 100 | > 100 |
| CC(=O)O[C@@H]1[C@H](C(C)C)[C@@H](OC(C)=O)C/C(C)=C/CC[C@]2(C)O[C@@H]12 | > 100 | > 100 | > 100 | > 100 | > 100 | > 100 | > 100 | > 100 | > 100 | > 100 |
| [N-]=[N+]=NC[C@H]1OCO[C@H](CN=[N+]=[N-])[C@@H](OCCOCCCl)[C@@H]1OCCOCCCl | > 100 | > 100 | > 100 | > 100 | > 100 | > 100 | > 100 | > 100 | > 100 | > 100 |
| CN(C(=O)C(Cc1ccccc1)NC(=O)OC(C)(C)C)C1(C(=O)NC(Cc2ccccc2)C(=O)OCc2ccccc2)CCCC1 (stereo not drawn) (Boc-Phe-[NMeAc5c]-Phe-OBn; configuration not given here) | > 100 | > 100 | > 100 | > 100 | > 100 | > 100 | > 100 | > 100 | > 100 | > 100 |
| C=CCN1C[C@H](C)N([C@H](c2ccc(C(=O)NC(CC)CC)cc2)c2cccc(OC)c2)C[C@H]1C | > 100 | 43.5 | > 100 | > 100 | > 100 | > 100 | > 100 | > 100 | > 100 | > 100 |
| CC(C)(C)N1CSC(=S)N(Cc2ccco2)C1 | 14.5 | 16.6 | 15.1 | 4.94 | 5.63 | 13.3 | 19.4 | 11.6 | 18.4 | 14.3 |
| COc1ccc(N/N=C2\CCOc3ccc(C)cc3C2=O)cc1 | > 100 | 38.7 | > 100 | > 100 | > 100 | 97.5 | > 100 | > 100 | > 100 | > 100 |
| CN1CCc2cc(N)cc3c2C1Cc1ccc(O)c(O)c1-3 (stereo not given) | > 100 | 88.2 | > 100 | 72.8 | > 100 | 33.1 | > 100 | > 100 | > 100 | > 100 |
| Nn1c(-c2ccccc2)nn(C(=O)c2ccccc2)c1=O | > 100 | > 100 | > 100 | > 100 | > 100 | > 100 | > 100 | > 100 | > 100 | > 100 |
| Cc1nc2n(c1/C=C1/C(=O)Nc3cccc(Cl)c31)CCS2 | 62.5 | > 100 | 52.1 | > 100 | 88.4 | > 100 | 74.1 | > 100 | > 100 | > 100 |
| CC(C)(C)OC(=O)NCCCCC1NC(=O)[C@@H]2Cc3c([nH]c4ccccc34)C(C3CCCCC3)N2C1=O (stereo not given in full) | > 100 | > 100 | > 100 | 47.5 | > 100 | 67.3 | > 100 | > 100 | > 100 | > 100 |
| COc1cc2nc3n(c(=O)c2cc1OC)-c1ccc([N+](=O)[O-])cc1C3=O | > 100 | > 100 | > 100 | > 100 | > 100 | > 100 | > 100 | > 100 | > 100 | > 100 |
